Experimental data as given in US20140263071A1, “METHOD FOR COLLECTING METALS” (CHEMEC OY AB, priority 2011, published 2014).
Marks after values point to notes of the source that are not given here.

Experiments:
[1] = Purification of ash water from toxic waste disposal plant, TS 3 (Example 18)
Protocol: An ash sample (200 g) obtained from toxic waste disposal plant was suspended to water (2.0 l) and stirred for 24 h and filtrated. Approximate metal concentrations (pH 3.62): 1-4 g/l of Ca^2+, K^+ and Na^+, 0.1-0.2 g/l of Al^3+, Mg^2+ and Zn^2+; ≦0.02 g/l of Cd^2+, Mn^2+, Pb^2+ and Sr^2+.
TS 3, TS 3 diluted to 1:10 (TS 3a), TS 3 diluted to 1:100 (TS 3b) and Cd^2+, Pb^2+ and Zn^2+ spiked samples TS 3a and TS 3b were each treated with 1a (1.0 g) with stirring for 24 h. These five samples were separately filtrated trough 0.2 μm syringe filter and metal concentrations in each solution were determined by ICP-AES method before and after treatment with 1a.

[2] = Effect of complexation agent amount on expulsion percent (Example 11); settings: Ca^2+ 2 ppm, pH 2.9
Protocol: A water solution (110 ml) containing known amount of single cationic element or elements, typically 0.5-200 ppm, was prepared from Merch Titrisol® standard solution. After adjusting pH by using acid (e.g. HCl or HNO3) or base (e.g. NaOH) to desired initial value, sample A (10 ml) was taken followed by adding 100 mg of selected solid complexation agent. The mixture was stirred at room temperature for 24 h and sample B (10 ml) was taken. Samples A and B were filtrated separately trough 0.2 μm syringe filter and the concentration of the studied element or elements in both solution was determined by using atomic absorption spectrophotometer. The expulsion percent was determined from the concentration differences between the sample solutions A and B.
Effect of amount of complexation agent 1a to expulsion percent was tested with 2.0 ppm calcium (Ca^2+) solution. A solution (100 ml) containing 2.0 ppm of calcium was stirred for 24 h with desired amount of complexation agent 1a (25 to 301 mg) at pH 2.9. Expulsions percent were determined for each solution using the general procedure and the results are collected in Table 6.

[3] = Purification of water draining through the dump site, TS 1 (Example 16); settings: Mo^2+
[4] = Drilled well water softening and purification (Example 15)
Protocol: Drilled well sample 1 (DW 1) was nearby Tampere and sample 2 (DW 2) nearby Turku. Samples (100 ml each) were stirred with 1a (1.0 g) for 24 h. The initial and final metal concentrations in solutions of selected metals were determined by using ICP-AES analysis after filtration and results are shown in Table 9.

[5] = Recycling and regeneration of solid bisphosphonate material (Example 27); settings: 1a 700 mg
Protocol: Compound 1a (700 mg) was weighed on sintered disc (porosity G-4) and aqueous CuCl2x2 H2O (20 ml) solution containing ca. 47 700 ppm of copper was passed slowly through the powder under vacuum. […] After the sintered disc was dry, aqueous HCl (25 ml, 2M) was passed slowly through the sintered disc. During this regeneration process solid bisphoshonate material on sintered disc turned from blue to white and filtered HCl solution was pale blue. The same procedure using the original 1a powder on sintered disc and a fresh CuCl2x2 H2O (20 ml) solution was repeated 20 times. The copper concentrations measured by AAS of the filtered HCl solution was 2294 ppm, 859 ppm and 713 ppm after first, 10th and 20th regeneration cycle, respectively. The amount of 1a after the last regeneration step was 630 mg (90% of the original amount).

## NCCCCCCCCCCC(O)(P(=O)(O)O)P(=O)(O)O [Compound 1a, 11-Amino-1-hydroxyundecane-1,1-diyldiphosphonic acid]
[1]; Spiked TS 3a, Al^3+
  Expulsion [%]: ≥ 79.3^5) %
[1]; Spiked TS 3a, Ca^2+
  Expulsion [%]: 88.9%
[1]; Spiked TS 3a, Cd^2+
  Expulsion [%]: 75.6%
[1]; Spiked TS 3a, K^+
  Expulsion [%]: 1.8%
[1]; Spiked TS 3a, Na^+
  Expulsion [%]: 3.5%
[1]; Spiked TS 3a, Pb^2+
  Expulsion [%]: ≥ 97.8^5) %
[1]; Spiked TS 3a, Sr^2+
  Expulsion [%]: 14.6%
[1]; Spiked TS 3a, Zn^2+
  Expulsion [%]: 93.6%
[1]; Spiked TS 3b, Ca^2+
  Expulsion [%]: 95.2%
[1]; Spiked TS 3b, Cd^2+
  Expulsion [%]: 96.2%
[1]; Spiked TS 3b, K^+
  Expulsion [%]: 0.8%
[1]; Spiked TS 3b, Na^+
  Expulsion [%]: 7.1%
[1]; Spiked TS 3b, Pb^2+
  Expulsion [%]: ≥ 98.1^5) %
[1]; Spiked TS 3b, Sr^2+
  Expulsion [%]: 60.2%
[1]; Spiked TS 3b, Zn^2+
  Expulsion [%]: 91.3%
[1]; TS 3, Al^3+
  Expulsion [%]: 3.4^ %
[1]; TS 3, Ca^2+
  Expulsion [%]: 1.9%
[1]; TS 3, Cd^2+
  Expulsion [%]: 2.1%
[1]; TS 3, K^+
  Expulsion [%]: 2.9%
[1]; TS 3, Mg^2+
  Expulsion [%]: 1.5%
[1]; TS 3, Mn^2+
  Expulsion [%]: 1.9%
[1]; TS 3, Na^+
  Expulsion [%]: 10.8%
[1]; TS 3, Pb^2+
  Expulsion [%]: 65.7%
[1]; TS 3, Sr^2+
  Expulsion [%]: 2.1%
[1]; TS 3, Zn^2+
  Expulsion [%]: 3.6%
[1]; TS 3a (TS 3 diluted 1:10), Al^3+
  Expulsion [%]: ≥ 71.8^5) %
[1]; TS 3a (TS 3 diluted 1:10), Ca^2+
  Expulsion [%]: 88.1%
[1]; TS 3a (TS 3 diluted 1:10), K^+
  Expulsion [%]: 0%
[1]; TS 3a (TS 3 diluted 1:10), Na^+
  Expulsion [%]: 2.0%
[1]; TS 3a (TS 3 diluted 1:10), Pb^2+
  Expulsion [%]: ≥ 35.5^5) %
[1]; TS 3a (TS 3 diluted 1:10), Sr^2+
  Expulsion [%]: 12.5%
[1]; TS 3a (TS 3 diluted 1:10), Zn^2+
  Expulsion [%]: 0.0%
[1]; TS 3b (TS 3 diluted 1:100), Ca^2+
  Expulsion [%]: 93.1%
[1]; TS 3b (TS 3 diluted 1:100), K^+
  Expulsion [%]: 1.6%
[1]; TS 3b (TS 3 diluted 1:100), Na^+
  Expulsion [%]: 9.9%
[1]; TS 3b (TS 3 diluted 1:100), Sr^2+
  Expulsion [%]: 53.4%
[1]; TS 3b (TS 3 diluted 1:100), Zn^2+
  Expulsion [%]: ≥ 48.5^5) %
[2]; 25 mg of 1a in 100 ml
  Expulsion [%]: 41.3%
[2]; 52 mg of 1a in 100 ml
  Expulsion [%]: 45.9%
[2]; 75 mg of 1a in 100 ml
  Expulsion [%]: 53.6%
[2]; 101 mg of 1a in 100 ml
  Expulsion [%]: 59.4%
[2]; 125 mg of 1a in 100 ml
  Expulsion [%]: 63.6%
[2]; 150 mg of 1a in 100 ml
  Expulsion [%]: 67.1%
[2]; 175 mg of 1a in 100 ml
  Expulsion [%]: 70.2%
[2]; 200 mg of 1a in 100 ml
  Expulsion [%]: 71.0%
[2]; 225 mg of 1a in 100 ml
  Expulsion [%]: 76.6%
[2]; 250 mg of 1a in 100 ml
  Expulsion [%]: 79.6%
[2]; 275 mg of 1a in 100 ml
  Expulsion [%]: 85.6%
[2]; 301 mg of 1a in 100 ml
  Expulsion [%]: 83.5%
[3]; Spiked TS 1
  Expulsion [%]: ≥ 52^2) %
[3]; TS 1
  Expulsion [%]: ≥ 58^2) %
[4]; DW 1 (pH 7.04), Al^3+, initial <0.05 mg/l
  Concentration after 1a: <0.05 mg/L
[4]; DW 1 (pH 7.04), Ca^2+, initial 43.8 mg/l
  Concentration after 1a: 0.232 mg/L
[4]; DW 1 (pH 7.04), Cu^2+, initial <0.05 mg/l
  Concentration after 1a: <0.05 mg/L
[4]; DW 1 (pH 7.04), Mg^2+, initial 10.9 mg/l
  Concentration after 1a: <0.1^4) mg/l
[4]; DW 1 (pH 7.04), Mn^2+, initial 0.095 mg/l
  Concentration after 1a: <0.02^4) mg/l
[4]; DW 1 (pH 7.04), Na^+, initial 15.2 mg/l
  Concentration after 1a: 13.5 mg/L
[4]; DW 1 (pH 7.04), Sr^2+, initial 0.097 mg/l
  Concentration after 1a: <0.02^4) mg/l
[4]; DW 1 (pH 7.04), Zn^2+, initial 0.044 mg/l
  Concentration after 1a: 0.018 mg/L
[4]; DW 1, Ca^2+
  Expulsion [%]: 99%
[4]; DW 1, Mg^2+
  Expulsion [%]: ≥ 99^5) %
[4]; DW 1, Mn^2+
  Expulsion [%]: ≥ 79^5) %
[4]; DW 1, Na^+
  Expulsion [%]: 11%
[4]; DW 1, Sr^2+
  Expulsion [%]: ≥ 79^5) %
[4]; DW 1, Zn^2+
  Expulsion [%]: ≥ 59^5) %
[4]; DW 2 (pH 6.97), Al^3+, initial 0.107 mg/l
  Concentration after 1a: <0.05^4) mg/l
[4]; DW 2 (pH 6.97), Ca^2+, initial 22.2 mg/l
  Concentration after 1a: 0.479 mg/L
[4]; DW 2 (pH 6.97), Cu^2+, initial 0.271 mg/l
  Concentration after 1a: <0.05^4) mg/l
[4]; DW 2 (pH 6.97), Mg^2+, initial 13.60 mg/l
  Concentration after 1a: 0.102 mg/L
[4]; DW 2 (pH 6.97), Mn^2+, initial <0.02 mg/l
  Concentration after 1a: <0.02 mg/L
[4]; DW 2 (pH 6.97), Na^+, initial 19.0 mg/l
  Concentration after 1a: 17.3 mg/L
[4]; DW 2 (pH 6.97), Sr^2+, initial 0.113 mg/l
  Concentration after 1a: 0.029 mg/L
[4]; DW 2 (pH 6.97), Zn^2+, initial 0.284 mg/l
  Concentration after 1a: 0.026 mg/L
[4]; DW 2, Al^3+
  Expulsion [%]: ≥ 53^5) %
[4]; DW 2, Ca^2+
  Expulsion [%]: 98%
[4]; DW 2, Cu^2+
  Expulsion [%]: ≥ 82^5) %
[4]; DW 2, Mg^2+
  Expulsion [%]: 99%
[4]; DW 2, Na^+
  Expulsion [%]: 9%
[4]; DW 2, Sr^2+
  Expulsion [%]: 74%
[4]; DW 2, Zn^2+
  Expulsion [%]: 91%
[5]; after 10th regeneration cycle
  copper concentration of the filtered HCl solution: 859 ppm
[5]; after 20th regeneration cycle
  copper concentration of the filtered HCl solution: 713 ppm
[5]; after first regeneration cycle
  copper concentration of the filtered HCl solution: 2294 ppm
